Molecules are shown by their SMILES.

One assay concerns Breast cancer cell line MCF-7. Description: MTT antiproliferative assay, MCF-7. Conditions: Homo sapiens, MCF7, 72 h, MTT assay, 72 h, 100–0.19 μM; read-out: IC50 (µM) ± SD MCF-7. It counts as cell-based, human. The method, then:
Breast cancer cell line MCF-7 (ATCC® HTB-22) and the drug-resistant subline of the human breast cancer MCF-7 (ECACC 86012803; KCR) were purchased from LGC Promochem (Teddington, UK). Both cell lines were cultured in Eagle’s Minimal Essential Medium (EMEM, containing 4.5 g/L glucose) supplemented with a non-essential amino acid mixture, a selection of vitamins, and 10% heat-inactivated fetal bovine serum. In every third passage, 0.56 µg/mL doxorubicin was added to the medium, in order to maintain the ABCB1 (P-glycoprotein) expression in KCR cells. A2780 human ovarian cancer cell line (ECACC, European Collection of Authentical Cell Culture, Sigma Cat.no. 93112519) was purchased from Merck KGaA (Darmstadt, Germany). The cisplatin-resistant human ovarian cancer cell line A2780cis (ECACC European Collection of Authentical Cell Culture, Sigma Cat.no. 93112517) was purchased from Merck KGaA (Darmstadt, Germany). The human ovarian cancer cell lines were cultured in RPMI 1640 medium supplemented with 10% heat-inactivated fetal bovine serum. […] HeLa (ATCC® CCL-2™) human cervix carcinoma cell line was purchased from LGC Promochem (Teddington, UK). The cells were cultured in Eagle’s Minimal Essential Medium (EMEM, containing 4.5 g/L glucose) supplemented with a non-essential amino acid mixture, a selection of vitamins, and 10% heat-inactivated fetal bovine serum. MRC-5 human embryonal lung fibroblast cell line (ATCC® CCL-171) was purchased from LGC Promochem, Teddington, UK. The cell line was cultured in Eagle’s Minimal Essential Medium (EMEM, containing 4.5 g/L glucose) supplemented with a non-essential amino acid mixture, a selection of vitamins, and 10% heat-inactivated fetal bovine serum. HTB-26 breast adenocarcinoma cell line was purchased from LGC Promochem, Teddington, UK. The cell line was cultured in RPMI 1640 medium supplemented with 10% heat-inactivated fetal bovine serum. T-47D (ATCC® HTB-133™) ductal carcinoma cell line was purchased from LGC Promochem, Teddington, UK. The cells were cultured in RPMI 1640 medium supplemented with 10% heat-inactivated fetal bovine serum, 2 mM L-glutamine, 1 mM Na-pyruvate, and 100 mM Hepes. All of the cells were incubated at 37 °C, in a 5% CO2 and 95% air atmosphere.
The antiproliferative effect of the compounds was determined on human breast (MCF-7, KCR, T47D, and HTB-26), cervical (HeLa), and ovarian (A2780 and A2780cis) cancer cells, and on MRC-5 (human embryonic lung fibroblast) cell lines. The adherent cells were cultured in 96-well flat-bottomed microtiter plates, using EMEM supplemented with 10% heat-inactivated fetal bovine serum or RPMI 1640 supplemented with 10% heat-inactivated fetal bovine serum, respectively. The density of the cells was adjusted to 6 × 10^3 cells in 100 μL per well, the cells were seeded for 24 h at 37 °C, with 5% CO2, and then the medium was removed from the plates, and fresh medium (100 μL per well) was added to the cells. The effects of increasing concentrations of compounds on cell proliferation were tested in 96-well flat-bottomed microtiter plates. The compounds were diluted in the appropriate medium; the dilutions of compounds were performed in separate plates and then added to the cells. The starting concentration of the compounds was 100 μM, and two-fold serial dilution was performed (concentration range: 100–0.19 μM). The culture plates were incubated at 37 °C for 72 h; at the end of the incubation period, 20 μL of MTT (thiazolyl blue tetrazolium bromide, Sigma) solution (from a stock solution of 5 mg/mL) was added to each well. After incubation at 37 °C for 4 h, 100 μL of sodium dodecyl sulfate (SDS) (Sigma) solution (10% in 0.01 M HCI) was added to each well, and the plates were further incubated, at 37 °C, overnight. Cell growth was determined by measuring the optical density (OD) at 540/630 nm, with a Multiscan EX ELISA reader (Thermo Labsystems, Cheshire, WA, USA). […]
As for `C=CC1=C(C)C(=O)C=C2CCC3=C(C=CC(=O)C3(C)OC)C21OC` (stereo not shown) [Compound 1b], the IC50 was 52.1 ± 4.8 µM. Turning to `C=CC1=C(C)C(=O)C=C2CCC3=C(C=CC(=O)C3(C)OCC)C21OCC` (stereo not shown) [Compound 2a], the IC50 stood at 80.5 ± 3.5 µM. On the same count and under the same terms, for `C=CC1=CC(=O)C=C2CCC3=C(C=CC(=O)C3(C)OC)C12OC` (stereo not shown) [Compound 3] the value was 5.8 ± 0.2 µM.

As for `C=CC1=CC(=O)C=C2CCC3=C(C=CC(=O)C3(C)OCC)C12OCC` (stereo not shown) [Compound 4a], the 50% inhibitory concentration (IC50) came out at 11.7 ± 0.7 µM. Still for that read-out and setting: the same measure for `C=Cc1cc(O)cc2c1-c1ccc(O)c(C)c1CC2` [effusol]: 48.6 ± 3.4 µM.

Turning to `C=Cc1c(C)c(O)cc2c1-c1ccc(O)c(C)c1CC2` [juncusol], the IC50 came to 37.1 ± 1.1 µM.

Still in this assay, the particulars now being: MTT assay, 72 h, 100–0.19 μM; read-out: IC50 (µM) ± SD MCF-7.
With `N.N.[Cl][Pt][Cl]` [Cisplatin, cisplatin, reference compound], the IC50 came out at 1.4 ± 1.1 µM. As to `C=CC1=C(C)C(=O)C=C2CCC3=C(C=CC(=O)C3(C)OCC)C21OCC` (stereo not shown) [Compound 2b], the half-maximal inhibitory concentration (IC50) amounted to 41 ± 0.9 µM. Still for that read-out and setting: for `C=CC1=CC(=O)C=C2CCC3=C(C=CC(=O)C3(C)OCC)C12OCC` (stereo not shown) [Compound 4b] the value was 10.2 ± 0.1 µM.

Staying with this assay, now noted: ratio of IC50 MRC-5 / MCF-7.
`C=CC1=CC(=O)C=C2CCC3=C(C=CC(=O)C3(C)OC)C12OC` (stereo not shown) [Compound 3]: the “selectivity against MCF-7 cells over non-tumoral MRC-5 cells” value is listed as “ca. 2.1 fold”.

(Values after publication PMC7765930, “Antiproliferative Phenanthrenes from Juncus tenuis: Isolation and Diversity-Oriented Semisynthetic Modification” (Molecules, 2020).)
